pIC50: −log10 of the molar value.
Tests used:
[1] = biological target: Human MER (residues 528-999) (Homo sapiens (Human), UniProt Q12866); assay: Human Mer kinase assay, HTRF KinEase (Example C-2); format: biochemical
Method in brief: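 IC50 values from 10 concentrations via 4-parameter logistic fit of […], with DMSO as 100% and 1 μM reference compound as 0% activity. Reaction: MER kinase domain 528-999, 1 ng/well, 40 μM ATP (Km), biotin peptide, 5 mM MgCl2, 1 mM DTT, 3% DMSO, room temperature 60 min; HTRF streptavidin-XL665/Eu-antibody detection.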

[2] = biological target: Met (phospho-Met, HGF-stimulated PC-3 prostate cancer cells) (Homo sapiens (Human), UniProt P08581); assay: Met autophosphorylation ELISA in PC-3 cells (Example F); format: cell-based; settings: cellular activity; Met autophosphorylation ELISA in PC-3 cells; read-out: c-Met IC50
Met (phospho-Met, HGF-stimulated PC-3 prostate cancer cells), sequence (P08581 25-1390): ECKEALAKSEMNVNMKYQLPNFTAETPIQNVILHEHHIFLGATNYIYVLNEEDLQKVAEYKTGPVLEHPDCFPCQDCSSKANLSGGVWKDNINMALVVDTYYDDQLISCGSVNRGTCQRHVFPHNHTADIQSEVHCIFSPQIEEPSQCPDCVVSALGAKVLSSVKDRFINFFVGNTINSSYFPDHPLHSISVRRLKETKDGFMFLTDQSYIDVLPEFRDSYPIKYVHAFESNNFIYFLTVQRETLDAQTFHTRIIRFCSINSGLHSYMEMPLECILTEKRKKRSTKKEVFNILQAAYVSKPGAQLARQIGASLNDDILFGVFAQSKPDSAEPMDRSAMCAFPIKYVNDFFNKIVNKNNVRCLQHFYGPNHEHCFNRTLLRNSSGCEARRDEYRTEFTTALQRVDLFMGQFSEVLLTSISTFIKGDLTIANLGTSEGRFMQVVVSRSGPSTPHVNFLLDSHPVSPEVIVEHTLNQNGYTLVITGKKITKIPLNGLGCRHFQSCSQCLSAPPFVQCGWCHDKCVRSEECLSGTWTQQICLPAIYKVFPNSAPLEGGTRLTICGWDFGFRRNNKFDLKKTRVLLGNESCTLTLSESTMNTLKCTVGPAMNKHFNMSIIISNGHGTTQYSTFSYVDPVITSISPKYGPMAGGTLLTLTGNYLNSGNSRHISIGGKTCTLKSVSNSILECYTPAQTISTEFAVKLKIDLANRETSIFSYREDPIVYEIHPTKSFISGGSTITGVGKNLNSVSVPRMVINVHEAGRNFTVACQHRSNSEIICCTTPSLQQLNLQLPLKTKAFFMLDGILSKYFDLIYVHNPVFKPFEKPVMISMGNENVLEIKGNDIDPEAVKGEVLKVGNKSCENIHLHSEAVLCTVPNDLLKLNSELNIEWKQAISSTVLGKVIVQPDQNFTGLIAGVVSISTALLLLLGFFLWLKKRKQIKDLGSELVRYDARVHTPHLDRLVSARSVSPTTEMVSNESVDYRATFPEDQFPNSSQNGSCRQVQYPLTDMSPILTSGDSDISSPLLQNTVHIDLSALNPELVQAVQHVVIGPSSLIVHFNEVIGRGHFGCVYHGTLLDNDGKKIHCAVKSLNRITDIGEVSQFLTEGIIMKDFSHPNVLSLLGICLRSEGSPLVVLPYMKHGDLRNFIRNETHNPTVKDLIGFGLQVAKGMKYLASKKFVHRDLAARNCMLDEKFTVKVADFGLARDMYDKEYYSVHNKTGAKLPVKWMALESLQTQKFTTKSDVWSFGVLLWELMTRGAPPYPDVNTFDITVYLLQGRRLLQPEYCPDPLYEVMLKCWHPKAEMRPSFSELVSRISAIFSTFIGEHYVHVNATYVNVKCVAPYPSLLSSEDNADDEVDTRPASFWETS
Method in brief: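 IC50 values derive from a 4-parameter logistic fit of phospho-Met (panTyr) sandwich ELISA signals in PC-3 lysates, scaled between DMSO and reference-inhibitor wells. Cells, starved 3 h in serum-free medium, had 1 h compound exposure (8 doses, 0.3% DMSO) before 10 min stimulation with 100 ng/mL HGF.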

[3] = protocol of Example C-2 (other compounds)

Human MER (residues 528-999), sequence (Q12866 528-999): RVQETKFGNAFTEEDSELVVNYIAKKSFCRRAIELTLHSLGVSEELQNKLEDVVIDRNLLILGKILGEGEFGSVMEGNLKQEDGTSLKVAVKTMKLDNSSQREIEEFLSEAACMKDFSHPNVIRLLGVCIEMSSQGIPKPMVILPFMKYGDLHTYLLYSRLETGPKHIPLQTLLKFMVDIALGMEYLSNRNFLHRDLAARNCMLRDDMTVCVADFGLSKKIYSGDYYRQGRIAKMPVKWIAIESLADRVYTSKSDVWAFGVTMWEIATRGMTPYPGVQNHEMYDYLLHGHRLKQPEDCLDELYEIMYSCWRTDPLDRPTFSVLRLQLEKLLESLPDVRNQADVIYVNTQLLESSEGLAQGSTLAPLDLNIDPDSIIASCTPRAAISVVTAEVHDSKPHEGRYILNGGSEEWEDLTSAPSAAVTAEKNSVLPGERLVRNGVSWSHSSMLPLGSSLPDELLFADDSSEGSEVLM

Structure (SMILES)	pIC50 ([1]; protocol of Example C-2)	pIC50 [2]	pIC50 [1, 3]
COCc1nc(C)c(-c2ccc(F)cc2C)c(O)c1C(=O)Nc1ccc(Oc2ccnc3ccc(OC)nc23)cc1 [Compound 516, 5-(4-fluoro-2-methylphenyl)-4-hydroxy-2-(methoxymethyl)-N-[4-[(6-methoxy-1,5-naphthyridin-4-yl)oxy]phenyl]-6-methylpyridine-3-carboxamide]	> 7.00	> 7.00	
COc1cc2nccc(Oc3ccc(NC(=O)c4c(C)n(C)cc(-c5ccc(F)cc5C)c4=O)cc3F)c2nc1OC [Compound 481, N-[4-[(6,7-dimethoxy-1,5-naphthyridin-4-yl)oxy]-3-fluorophenyl]-5-(4-fluoro-2-methylphenyl)-1,2-dimethyl-4-oxopyridine-3-carboxamide]	> 7.00	> 7.00	
COc1cnc2c(Oc3ccc(NC(=O)c4nnc(C)c(-c5ccc(F)cc5)c4OC)cc3)ccnc2c1 [Compound 515, 5-(4-fluorophenyl)-4-methoxy-N-[4-[(7-methoxy-1,5-naphthyridin-4-yl)oxy]phenyl]-6-methylpyridazine-3-carboxamide]	> 7.00	> 7.00	
COc1nc2c(Oc3ccc(NC(=O)c4c(C)nc(C)c(-c5ccc(F)cc5)c4O)cc3F)ccnc2cc1C [Compound 459, N-[3-fluoro-4-[(6-methoxy-7-methyl-1,5-naphthyridin-4-yl)oxy]phenyl]-5-(4-fluorophenyl)-4-hydroxy-2,6-dimethylpyridine-3-carboxamide]	> 7.00	> 7.00	
COCCOc1ccc2nccc(Oc3ccc(NC(=O)c4cnc(C)c(-c5ccc(F)cc5)c4O)cc3F)c2n1 [Compound 348, N-[3-fluoro-4-[[6-(2-methoxyethoxy)-1,5-naphthyridin-4-yl]oxy]phenyl]-5-(4-fluorophenyl)-4-hydroxy-6-methylpyridine-3-carboxamide]		> 7.00	> 7.00
COc1cnc2c(Oc3ccc(NC(=O)c4cc(C)nn(-c5ccc(F)cc5)c4=O)cc3F)ccnc2c1 [Compound 521, N-[3-fluoro-4-[(7-methoxy-1,5-naphthyridin-4-yl)oxy]phenyl]-2-(4-fluorophenyl)-6-methyl-3-oxopyridazine-4-carboxamide]	> 7.00	6.52 to 7.00	
COc1nc2c(Oc3ccc(NC(=O)c4cnc(C)c(-c5ccc(F)cc5)c4O)cc3F)ccnc2cc1C [Compound 458, N-[3-fluoro-4-[(6-methoxy-7-methyl-1,5-naphthyridin-4-yl)oxy]phenyl]-5-(4-fluorophenyl)-4-hydroxy-6-methylpyridine-3-carboxamide]	> 7.00	> 7.00	
COc1cc2nccc(Oc3ccc(NC(=O)c4nn(C)c(C)c(-c5ccc(F)cc5C)c4=O)cc3)c2nc1OC [Compound 517, N-[4-[(6,7-dimethoxy-1,5-naphthyridin-4-yl)oxy]phenyl]-5-(4-fluoro-2-methylphenyl)-1,6-dimethyl-4-oxopyridazine-3-carboxamide]	> 7.00	> 7.00	
COc1cc2nccc(Oc3ccc(NC(=O)c4cn(C)cc(-c5ccc(F)cc5C)c4=O)cc3F)c2nc1OC [Compound 503, N-[4-[(6,7-dimethoxy-1,5-naphthyridin-4-yl)oxy]-3-fluorophenyl]-5-(4-fluoro-2-methylphenyl)-1-methyl-4-oxopyridine-3-carboxamide]	> 7.00	> 7.00	
COc1cnc2c(Oc3ccc(NC(=O)c4nn(C)c(C)c(-c5ccc(F)cc5C)c4=O)cc3F)ccnc2c1 [Compound 513, N-[3-fluoro-4-[(7-methoxy-1,5-naphthyridin-4-yl)oxy]phenyl]-5-(4-fluoro-2-methylphenyl)-1,6-dimethyl-4-oxopyridazine-3-carboxamide]	> 7.00	> 7.00	
COc1cc2nccc(Oc3ccc(NC(=O)c4cc(C)nn(-c5ccc(F)cc5)c4=O)cc3F)c2nc1OC [Compound 519, N-[4-[(6,7-dimethoxy-1,5-naphthyridin-4-yl)oxy]-3-fluorophenyl]-2-(4-fluorophenyl)-6-methyl-3-oxopyridazine-4-carboxamide]	> 7.00	> 7.00	
COc1cc2nccc(Oc3ccc(NC(=O)c4c(C)n(C)c(C)c(-c5ccc(F)cc5)c4=O)cc3)c2nc1OC [Compound 523, N-[4-[(6,7-dimethoxy-1,5-naphthyridin-4-yl)oxy]phenyl]-5-(4-fluorophenyl)-1,2,6-trimethyl-4-oxopyridine-3-carboxamide]	> 7.00	> 7.00	
C=C(C)c1cnc2c(Oc3ccc(NC(=O)c4c(C)cc(C)n(-c5ccc(F)cc5)c4=O)cc3F)ccnc2c1 [Compound 457, 1-(4-fluorophenyl)-N-[3-fluoro-4-[(7-prop-1-en-2-yl-1,5-naphthyridin-4-yl)oxy]phenyl]-4,6-dimethyl-2-oxopyridine-3-carboxamide]	> 7.00	> 7.00	
COc1cc2c(Oc3ccc(NC(=O)c4ccc(C)n(-c5ccc(F)cc5)c4=O)cc3F)ccnc2cn1 [Compound 494, N-[3-fluoro-4-[(6-methoxy-1,7-naphthyridin-4-yl)oxy]phenyl]-1-(4-fluorophenyl)-6-methyl-2-oxopyridine-3-carboxamide]	> 7.00	> 7.00	
Cc1cc(F)ccc1-c1c(C)nc(C)c(C(=O)Nc2ccc(Oc3ccnc4cccnc34)c(F)c2)c1O [Compound 505, 5-(4-fluoro-2-methylphenyl)-N-[3-fluoro-4-(1,5-naphthyridin-4-yloxy)phenyl]-4-hydroxy-2,6-dimethylpyridine-3-carboxamide]	6.52 to 7.00	> 7.00	
COCc1nc(C)c(-c2ccc(F)cc2)c(O)c1C(=O)Nc1ccc(Oc2ccnc3ccc(OC)cc23)c(F)c1 [Compound 525, N-[3-fluoro-4-(6-methoxyquinolin-4-yl)oxyphenyl]-5-(4-fluorophenyl)-4-hydroxy-2-(methoxymethyl)-6-methylpyridine-3-carboxamide]	> 7.00	> 7.00	
COc1cnc2c(Oc3ccc(NC(=O)c4cn(C)c(C)c(-c5ccc(F)cc5C)c4=O)cc3)ccnc2c1 [Compound 187, 5-(4-Fluoro-2-methylphenyl)-N-[4-[(7-methoxy-1,5-naphthyridin-4-yl)oxy]phenyl]-1,6-dimethyl-4-oxopyridine-3-carboxamide]		> 7.00	> 7.00

Other lines, results leading:

pIC50 ([1]; protocol of Example C-2)	pIC50 [2]	pIC50 [1, 3]	Structure (SMILES)
> 7.00	> 7.00		COc1cc2nccc(Oc3ccc(NC(=O)c4cn(C)c(CF)c(-c5ccc(F)cc5)c4=O)cc3)c2nc1OC [Compound 560, N-[4-[(6,7-Dimethoxy-1,5-naphthyridin-4-yl)oxy]phenyl]-6-(fluoromethyl)-5-(4-fluorophenyl)-1-methyl-4-oxopyridine-3-carboxamide]
> 7.00	> 7.00		COc1cc2nccc(Oc3ccc(NC(=O)c4cnc(SC(C)C)n(-c5ccc(F)cc5)c4=O)cc3)c2cc1OC [Compound 539, N-[4-(6,7-dimethoxyquinolin-4-yl)oxyphenyl]-1-(4-fluorophenyl)-6-oxo-2-propan-2-ylsulfanylpyrimidine-5-carboxamide]
> 7.00	> 7.00		COCCOc1nc2c(Oc3ccc(NC(=O)c4cn(C)c(CF)c(-c5ccc(F)cc5)c4=O)cc3F)ccnc2cc1OC [Compound 557, N-[3-Fluoro-4-[[7-methoxy-6-(2-methoxyethoxy)-1,5-naphthyridin-4-yl]oxy]phenyl]-6-(fluoromethyl)-5-(4-fluorophenyl)-1-methyl-4-oxopyridine-3-carboxamide]
> 7.00	> 7.00		COCCOc1cnc2c(Oc3ccc(NC(=O)c4ccc(C)n(-c5ccc(F)cc5)c4=O)cc3F)ccnc2c1 [Compound 552, N-[3-Fluoro-4-[[7-(2-methoxyethoxy)-1,5-naphthyridin-4-yl]oxy]phenyl]-1-(4-fluorophenyl)-6-methyl-2-oxopyridine-3-carboxamide]
> 7.00	> 7.00		CCn1cc(C(=O)Nc2ccc(Oc3ccnc4cc(OC)c(OC)nc34)c(F)c2)c(=O)c(-c2ccc(F)cc2)c1CF [Compound 562, N-[4-[(6,7-Dimethoxy-1,5-naphthyridin-4-yl)oxy]-3-fluorophenyl]-1-ethyl-6-(fluoromethyl)-5-(4-fluorophenyl)-4-oxopyridine-3-carboxamide]
> 7.00	> 7.00		CCn1cc(C(=O)Nc2ccc(Oc3ccnc4cc(OC)cnc34)c(F)c2)c(=O)c(-c2ccc(F)cc2)c1CF [Compound 559, 1-Ethyl-N-[3-fluoro-4-[(7-methoxy-1,5-naphthyridin-4-yl)oxy]phenyl]-6-(fluoromethyl)-5-(4-fluorophenyl)-4-oxopyridine-3-carboxamide]
> 7.00	> 7.00		Cc1ccc(C(=O)Nc2ccc(Oc3ccnc4cc(O)cnc34)c(F)c2)c(=O)n1-c1ccc(F)cc1 [Compound 551, N-[3-Fluoro-4-[(7-hydroxy-1,5-naphthyridin-4-yl)oxy]phenyl]-1-(4-fluorophenyl)-6-methyl-2-oxopyridine-3-carboxamide]
> 7.00	> 7.00		Cc1nc(C)c(-c2ccc(F)cc2)c(O)c1C(=O)Nc1ccc(Oc2ccnc3cc(O)cnc23)c(F)c1 [Compound 554, N-[3-Fluoro-4-[(7-hydroxy-1,5-naphthyridin-4-yl)oxy]phenyl]-5-(4-fluorophenyl)-4-hydroxy-2,6-dimethylpyridine-3-carboxamide]
> 7.00	> 7.00		COc1cc2nccc(Oc3ccc(NC(=O)c4cn(C)c(CF)c(-c5ccc(F)cc5C)c4=O)cc3F)c2nc1OC [Compound 556, N-[4-[(6,7-Dimethoxy-1,5-naphthyridin-4-yl)oxy]-3-fluorophenyl]-6-(fluoromethyl)-5-(4-fluoro-2-methylphenyl)-1-methyl-4-oxopyridine-3-carboxamide]

Reference: US12371428B2 (Exelixis, Inc., priority 2019, dated 2025)
